# Source: PMC5585294, “A potent series targeting the malarial cGMP-dependent protein kinase clears infection and blocks transmission” (Nature Communications, 2017)
# Where two headings read alike, the source gives them in different places.
# Legend:
# [1] = Parallel artificial membrane permeability assay (PAMPA); type: in vitro ADME
# Excerpt: Compound mlm hlm mLogD PAMPA HepG2
# name (%rem) (%rem) (nm/s) (IC50 µM)
# Supplementary Table 2. Compound Properties. MLM, HLM, mLogD and PAMPA . mlm
# [2] = test system: P. falciparum T618Q gatekeeper mutant line; assay: Hypoxanthine incorporation growth inhibition assay, asexual blood stage, T618Q gatekeeper mutant line; type: cell-based, Plasmodium falciparum; conditions: for EC50 / EC90: T618Q clonal line asexual blood stage growth, 72 h, +/- s.e.m.; for sensitivity of gatekeeper mutant line compared with wild type (control drugs): tested in parallel on both parasite lines
# Protocol: We determined that a 72 h P. falciparum (clone 3D7A; obtained from Lisa Ranford Cartwright, University of Edinburgh) growth inhibition assay was necessary for full inhibition to manifest itself and that this is due, most likely to a schizont-specific action rather than a delayed death phenotype as observed for some antibiotic macrocycles. Hypoxanthine incorporation assays[36] were performed on P. falciparum asexual blood stage parasites (wild-type 3D7 or T618Q gatekeeper mutant) to determine EC50 values for test compounds. Mixed staged parasites (primarily rings) were added to 96 well plates containing compounds at concentrations of 50 μM–0.3 nM. [^3H]-Hypoxanthine was added after 48 h to a final concentration of 0.2 μCi. The radioactivity of the labeled hypoxanthine incorporated into the parasite nucleic acids over 24 h was determined relative to untreated controls using a Wallac 1450 Microbeta scintillation counter (Perkin-Elmer). Assays were carried out in triplicate at least twice.
# [3] = Stability in mouse liver microsomes
# Protocol: (§1) Compound mlm hlm mLogD PAMPA HepG2 name (%rem) (%rem) (nm/s) (IC50 µM)
# (§2) Supplementary Table 2. Compound Properties. MLM, HLM, mLogD and PAMPA . mlm (%rem): % of compound remaining after 30 minutes’ incubation with mouse liver microsomes; hlm (%rem): % of compound remaining after 40 minutes’ incubation with human liver microsomes; mLogD: measured LogD at pH 7.4; PAMPA: parallel artificial membrane permeability assay; HepG2: Cytotoxicity assay using HepG2 cells; n.t.: not tested.
# physchem = conditions: pH 7.4
# Protocol: as §1, §2
# HepG2 cells = assay: Cytotoxicity assay using HepG2 cells
# Protocol: as §1, §2
# P. falciparum 3D7 = assay: Hypoxanthine incorporation growth inhibition assay, asexual blood stage, wild-type 3D7; type: cell-based, Plasmodium falciparum; conditions: for EC50: read-out: EC50 WT
# Protocol: Hypoxanthine incorporation assays[36] were performed on P. falciparum asexual blood stage parasites (wild-type 3D7 or T618Q gatekeeper mutant) to determine EC50 values for test compounds. Mixed staged parasites (primarily rings) were added to 96 well plates containing compounds at concentrations of 50 μM–0.3 nM. […] Assays were carried out in triplicate at least twice.
# PfPKG T618Q = PfPKG T618Q (Plasmodium falciparum, UniProt Q8I719, T618Q); assay: Microfluidic mobility shift kinase assay, recombinant PfPKG T618Q gatekeeper mutant
# Protocol: (§3) Full length PfPKG (NCBI accession code XP_001348520) with native codon usage was cloned into the pTrcHisC plasmid (Life Technologies) that includes an N-terminal His-tag as described previously[8]. […] Recombinant proteins were generated and purified using a protocol based on that described previously[8]. […] 500 ml cultures in LB Rich Broth (containing 50 μg/ml carbenicillin and 34 μg/ml chloramphenicol) were grown in a shaking incubator at 37 °C until reaching an optical density (O.D.) of 0.6–0.7. The temperature was reduced to 16 °C before induction of expression with 1 mM IPTG. Incubation at 16 °C was continued overnight.
# (§4) The cultures were harvested by centrifugation at 4000×g at 4 °C for 30 min, the supernatant removed and the pellet stored at −80 °C for in excess of 1 h. The PKGs were purified via the histidine tag on HiTrap TALON (cobalt) columns (GE Healthcare) connected to an AKTA-FPLC as per the manufacturer's instruction. Fractions were analyzed by SDS-PAGE and the main peak concentrated on 10 kDa MWCO concentrators (Amicon). Purified proteins were stored in 50% glycerol at −80 °C in single use aliquots. The final buffer composition of the purified product was: 50 mM Tris/HCl pH 7.5, 0.1 mM EGTA, 150 mM NaCl, 0.1% β-mercaptoethanol, 50% glycerol, 0.03% Brij-35, 1 mM benzamidine and 0.2 mM PMSF.
# (§5) IC50 values were determined for test compounds using a microfluidic mobility shift assay. Briefly, compounds were prepared over a 10-well ½ log dilution series in dimethyl sulfoxide (DMSO) in duplicate in 50 μl volumes using 384-well polypropylene U-bottomed plates (Thermo Scientific, UK). The plates contained positive/no inhibitor (DMSO only) and negative (no enzyme) controls in columns 1, 2, and 23, 24. […] Samples were pre-incubated at room temperature for 30 min and reactions were initiated by addition of 25 μl ATP mix (10 mM MgCl2 and ATP, at KM of the enzyme under test [20 µM PfPKG and 90 µM PfPKG T618Q], in water). Positive controls were complete reaction mixtures with 10% DMSO and negative controls were reaction mixtures with 10% DMSO but lacking enzyme. Reactions were allowed to proceed for 30 mins at room temperature, corresponding to conversion of approximately 10% of the substrate in the DMSO controls. Reactions were terminated by addition of 50 µl stop solution (25 mM EDTA in water). Samples were analyzed by electrophoretic separation of substrate and product peaks and fluorescence detection using a Caliper Lab Chip EZ reader. (Perkin Elmer, Waltham MA) with 0.2 s sip time, downstream voltage 500 V, upstream voltage 1950 V and pressure 0.5 to 1.5 psi. Substrate and product peak heights were measured and the ratio of the product peak height divided by the sum of the product and substrate peaks were determined using EZ reader software (version 3.0.265.0) to obtain percentage conversion (P) values. […] Liquid handling stages were conducted on a Biomek robotic liquid handler (Beckman Coulter).
# PfPKG = PfPKG (Plasmodium falciparum, UniProt Q8I719); assay: Microfluidic mobility shift kinase assay, recombinant PfPKG wild type
# Protocol: as §3, §4, §5
# [4] = Stability in human liver microsomes
# Protocol: as §1, §2
# [5] = Plasma levels in satellite groups of mice, P. berghei experiment; type: in vivo, mouse; conditions: mice, oral 25 mg/kg, P. berghei experiment
# Excerpt: Supplementary Figure 4. Plasma concentrations over time in rodent malaria models. […] Error bars show the standard deviation. (1 picture or pasted object on this page, not shown here)
# P. chabaudi (AS) = assay: Synchronous P. chabaudi AS model in BALB/c mice; type: in vivo, Plasmodium chabaudi; conditions: single daily oral dose 50 mg/kg just prior to schizogony, 4 days
# Protocol: Similar experiments were performed using P. chabaudi AS (from David Walliker, University of Edinburgh) with the following modifications. To allow dosing to be carried out more conveniently during the day, reversal of the light/dark exposure of mice for 2 weeks prior to the experiment was used to switch schizogony from midnight to noon each day. Mice were dosed at different time points in an attempt to have maximal coverage at the point of schizogony. All animal work protocols carried out at LSHTM were approved and licensed by the United Kingdom Home Office as governed by law under the Animals (Scientific Procedures) Act of 1986, in strict accordance with the Code of Practice Part 1 for the housing and care of animals (21 March 2005), available at http://www.homeoffice.gov.uk/science-research/animal-research/
# [6] = test system: P. falciparum (NF54) gametocytes; assay: Standard membrane feeding assay (SMFA), gametocytes fed to Anopheles stephensi; type: cell-based, Plasmodium falciparum; conditions: gametocytes pre-incubated 24 h, oocysts counted day 7 post-feed, read-out: IC50 for reduction of the intensity of infection (oocysts)
# Protocol: Mature P. falciparum (NF54) gametocytes (14 day culture, 0.3–0.5% gametocytes, 2% haematocrit) were obtained from an automated tipper system and incubated with compound for 24 h as previously described. Anopheles stephensi (Sind-Kasur Nijmegen strain[39] were reared at 30 °C and 70–80% humidity, while exposed to a 12/12 h day/night cycle. On the day of feeding, the gametocyte culture was adjusted to 50% hematocrit with human red blood cells and human serum and fed to 3–5 day old mosquitoes using a glass membrane mini-feeder system containing 0.35 ml of the P. falciparum culture/compound mix[40]. Unfed and partially fed mosquitoes were removed after feeding and blood fed females were maintained at 26 °C and 70–80% humidity. Up to 20 surviving mosquitoes were collected on day 7 post-infection and oocysts were visualized using a 1% merchurochrome solution and quantified by microscopy. IC50 values were determined by logistic regression using Maximum Likelihood Estimation to find best fit[41].
# [7] = test system: P. falciparum lab isolate Dd2; assay: In vitro selection of resistant parasites; type: cell-based, Plasmodium falciparum; conditions: 3× EC50, 10^9 parasites, up to Day 60
# Protocol: P. falciparum lab isolate Dd2 (from stocks held at LSHTM) was used for this experiment and the control compound used was atovaquone. Parasites were plated in triplicate at 10^9 parasites/well and maintained until parasites were observed microscopically (using Giemsa-stained blood films) or until Day 60 whichever was the soonest. […]. Gametocytes were present initially but were absent from Day 11.
# [8] = Cytotoxicity assay using HepG2 cells; conditions: human
# Protocol: as §1, §2
# [9] = test system: P. falciparum gatekeeper mutant (T618Q) stage V gametocytes; assay: Gametogenesis (rounding up) assay, T618Q stage V gametocytes; type: cell-based, Plasmodium falciparum; conditions: 30 µM xanthurenic acid; 2 µM ML1, 1 µM ML10
# [10] = test system: P. falciparum wild-type (3D7) stage V gametocytes; assay: Gametogenesis (rounding up) assay, wild-type 3D7 stage V gametocytes; type: cell-based, Plasmodium falciparum; conditions: 30 µM xanthurenic acid; 2 µM ML1, 1 µM ML10
# Protocol: Plasmodium falciparum clone 3D7A (obtained from Dr Lisa Ranford-Cartwright, University of Edinburgh) gametocytes were initiated and cultured using an adapted version of the traditional Trager and Jenson method modified by Fivelman and colleagues. Stage V gametocytes were purified on a 60% Percoll gradient. Purified parasite samples were diluted in warm complete media (RPMI-1640 (Sigma), 0.5% Albumax (Invitrogen), 0.03% L-glutamine (Sigma), 0.2% Glucose (Sigma), 1× hypoxanthine (Sigma)), to a volume that would allow a final volume of […] per sample and a haematocrit of <10%. […] Control tubes containing DMSO only were kept at 37 °C. All other samples were incubated at room temperature for 30 min immediately after addition of test compounds. Samples were then washed once in warm RPMI followed by removal of the supernatant to leave a final haematocrit of roughly 50%. Samples were smeared on glass slides and fixed in 100% methanol (VWR) then stained for 15 min in 10% Giemsa R66 (VWR) and observed by light microscopy. The number of gametocytes at stage V and rounded up per 900 erythrocytes were counted three consecutive times to produce an average count. Numbers of parasites rounded up were compared to the no drug control.
# [11] = 3D7 asexual blood stage growth, 72 h, +/- s.e.m.
# [12] = read-out: IC50 T618Q, recombinant PfPKG T618Q, ATP at KM (90 µM), +/- s.e.m.
# [13] = read-out: IC50 WT, recombinant full length 6His-tagged PfPKG, ATP at KM (20 µM), +/- s.e.m.
# [14] = Plasmodium falciparum, 3D7, 72 h
# [15] = Plasmodium falciparum, 3D7, 72 h, 3D7 asexual blood stage growth, 72 h, +/- s.e.m.
# [16] = % of compound remaining after 40 minutes' incubation
# PfPKG T618Q, sequence (Q8I719 whole entry T618Q): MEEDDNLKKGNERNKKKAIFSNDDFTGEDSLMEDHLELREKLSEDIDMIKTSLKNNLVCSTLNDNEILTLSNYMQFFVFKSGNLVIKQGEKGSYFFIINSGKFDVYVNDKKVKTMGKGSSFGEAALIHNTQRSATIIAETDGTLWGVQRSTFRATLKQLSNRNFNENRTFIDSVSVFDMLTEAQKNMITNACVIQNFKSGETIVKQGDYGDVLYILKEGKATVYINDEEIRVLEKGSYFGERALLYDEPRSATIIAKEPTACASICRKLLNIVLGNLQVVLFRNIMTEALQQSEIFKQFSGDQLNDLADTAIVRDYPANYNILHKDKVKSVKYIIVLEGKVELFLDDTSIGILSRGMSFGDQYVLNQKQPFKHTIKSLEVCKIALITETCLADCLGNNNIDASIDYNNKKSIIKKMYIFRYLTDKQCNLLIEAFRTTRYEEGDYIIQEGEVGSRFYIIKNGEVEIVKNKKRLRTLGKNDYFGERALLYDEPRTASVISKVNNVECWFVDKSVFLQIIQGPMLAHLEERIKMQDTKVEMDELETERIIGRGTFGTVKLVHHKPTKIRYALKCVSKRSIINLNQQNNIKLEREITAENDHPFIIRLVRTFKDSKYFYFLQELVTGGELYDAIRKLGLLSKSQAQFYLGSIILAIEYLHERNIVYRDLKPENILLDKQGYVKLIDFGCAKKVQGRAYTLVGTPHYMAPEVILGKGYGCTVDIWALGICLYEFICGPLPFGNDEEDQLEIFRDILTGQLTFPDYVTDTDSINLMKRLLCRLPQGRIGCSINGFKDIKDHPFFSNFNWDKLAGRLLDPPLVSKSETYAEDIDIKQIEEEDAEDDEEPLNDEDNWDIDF
# PfPKG, sequence (Q8I719 whole entry): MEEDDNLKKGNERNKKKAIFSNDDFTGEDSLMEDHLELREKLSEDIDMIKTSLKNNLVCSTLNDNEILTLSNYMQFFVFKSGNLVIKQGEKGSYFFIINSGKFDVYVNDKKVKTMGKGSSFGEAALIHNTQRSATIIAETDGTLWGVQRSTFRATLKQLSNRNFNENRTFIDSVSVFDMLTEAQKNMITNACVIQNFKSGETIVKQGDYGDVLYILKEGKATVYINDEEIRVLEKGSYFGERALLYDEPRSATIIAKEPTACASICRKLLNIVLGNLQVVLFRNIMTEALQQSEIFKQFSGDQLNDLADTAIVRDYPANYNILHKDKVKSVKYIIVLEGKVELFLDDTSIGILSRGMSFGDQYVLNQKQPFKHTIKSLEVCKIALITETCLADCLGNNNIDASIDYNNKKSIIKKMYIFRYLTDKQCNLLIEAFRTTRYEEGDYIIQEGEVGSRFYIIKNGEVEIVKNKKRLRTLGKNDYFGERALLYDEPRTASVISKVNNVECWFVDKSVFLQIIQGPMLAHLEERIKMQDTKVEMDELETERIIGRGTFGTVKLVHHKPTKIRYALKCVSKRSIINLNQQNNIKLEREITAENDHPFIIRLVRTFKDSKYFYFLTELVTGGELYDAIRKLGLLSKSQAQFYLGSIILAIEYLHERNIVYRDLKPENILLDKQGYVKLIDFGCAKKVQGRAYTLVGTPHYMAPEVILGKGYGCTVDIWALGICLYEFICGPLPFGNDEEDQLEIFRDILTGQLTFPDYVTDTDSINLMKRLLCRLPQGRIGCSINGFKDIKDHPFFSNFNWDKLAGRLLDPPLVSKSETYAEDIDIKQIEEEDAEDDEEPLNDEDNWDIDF
SMILES,PAMPA [1] [nm/s],EC50 [2] [µM],EC90 [2] [µM],"mlm (%rem) ([3]; mouse, microsomes, 0.5 h) [%]",mLogD (physchem),IC50 (HepG2 cells) [µM],EC90 (P. falciparum 3D7; [11]) [nM],EC50 (P. falciparum 3D7; [11]) [nM],IC50 (PfPKG T618Q; [12]) [µM],IC50 (PfPKG; [13]) [nM],"hlm (%rem) ([4]; human, microsomes, 40 min) [%]",also measured
CN(C)Cc1ccn2c(-c3ccnc(N)n3)c(-c3cccc(S(C)(=O)=O)c3)nc2c1 [ML5],17.7,12.7,61.5,96,1.5,> 20,445,329,> 100,0.88,96,
Cc1cn2c(-c3ccnc(Nc4ccc(N5CCNCC5)cc4)n3)c(-c3ccc(F)cc3)nc2cc1CN(C)C [ML4],37.1,0.107,0.186,84,2.8,1.9,107,25.3,0.231,0.45,31,plasma half-life [5]: 1.0 h; reduction in blood stage parasitaemia (P. chabaudi (AS)): 56.5%; IC50 [6]: 61.6 nM
CN(C)Cc1ccn2c(-c3ccnc(NCC4CC4)n3)c(-c3cccc(S(C)(=O)=O)c3)nc2c1 [ML6],114.5,1.85,3.49,62,2.3,> 20,142,102,52.5,0.13,72,
"CCN(CC)CCCC(C)Nc1ccnc2cc(Cl)ccc12 (centres unmarked) [Chloroquine, reference compound]",,,,,,,,,,,,sensitivity of gatekeeper mutant line compared with wild type (control drugs) [2]: equivalent levels of inhibition of both parasite lines; EC50 (P. falciparum 3D7; [14]): 16.2 ± 1.2 nM
"C[C@@H]1CC[C@H]2[C@@H](C)C(=O)O[C@@H]3O[C@@]4(C)CC[C@@H]1[C@]32OO4 [Artemisinin, reference compound]",,,,,,,,,,,,sensitivity of gatekeeper mutant line compared with wild type (control drugs) [2]: equivalent levels of inhibition of both parasite lines; EC50 (P. falciparum 3D7; [15]): 25.2 ± 1.5 nM
CN(C)Cc1ccn2c(-c3ccnc(Nc4ccc(N5CCNCC5)cc4)n3)c(-c3ccc(F)cc3)nc2c1 [ML3],66.2,0.195,0.279,,2.2,,236,63.4,0.842,0.79,,"mlm (%rem) ([3]; % of compound remaining after 30 minutes' incubation): 89%; IC50 (HepG2 cells; read-out: HepG2 (IC50 M), cytotoxicity): 1.9 µM; hlm (%rem) [4, 16]: 62%"
Cc1cn2c(-c3ccnc(N)n3)c(-c3ccc(F)c(NS(C)(=O)=O)c3)nc2cc1CN(C)C [ML9],10.8,6.9,48.3,81,1.6,,158,105,> 100,1.19,86,
CN(C)Cc1ccn2c(-c3ccnc(N)n3)c(-c3cccc(NS(C)(=O)=O)c3)nc2c1 [ML7],6.4,35.1,60.7,96,1.6,> 20,633,489,> 100,4.34,82,
O=C1C(O)=C([C@H]2CC[C@H](c3ccc(Cl)cc3)CC2)C(=O)c2ccccc21 [atovaquone],,,,,,,,,,,,selection of resistant parasites [7]: readily selected
"CCc1nc(N)nc(N)c1-c1ccc(Cl)cc1 [Pyrimethamine, reference compound]",,,,,,,,,,,,sensitivity of gatekeeper mutant line compared with wild type (control drugs) [2]: resistant; EC50 (P. falciparum 3D7; [15]): 43.3 ± 5.9 nM
CN(C)Cc1ccn2c(-c3ccnc(N)n3)c(-c3ccc(F)c(NS(C)(=O)=O)c3)nc2c1 [ML8],2.0,5.57,31,97,0.8,> 20,182,148,73.7,0.79,91,
"CN(C)Cc1ccn2c(-c3ccnc(N)n3)c(-c3ccc(F)cc3)nc2c1 [ML1, 4-[7-[(dimethylamino)methyl]-2-(4-fluorophenyl)imidazo[1,2-a]pyridine-3-yl]pyrimidin-2-amine, reference compound]",,,,,2.4,,,,,,,"IC50 [8]: > 20 µM; EC50 (P. falciparum 3D7; [14]): 395 nM; IC50 (PfPKG T618Q): 8.44 µM; rounding up of T618Q gametocytes [9]: insensitive; half-life ([5]; BALB/c, mouse, in vivo, read-out: plasma half-life (converted)): 66 min; reduction in blood stage parasitaemia (P. chabaudi (AS)): 67.9%; rounding up of wild-type gametocytes [10]: blocked rounding up; IC50 (PfPKG): 3.1 nM; IC50 ([6]; Plasmodium falciparum, NF54): 507 nM; hlm (%rem) [4, 16]: 70%"
Fc1ccc(-c2nc3ccccn3c2-c2ccnc(Nc3ccc(N4CCNCC4)cc3)n2)cc1 [ML2],0.0,0.14,0.956,100,3.1,,628,197,1.71,1.71,100,
